This note sets out measurements from patent US9586931B2 (Merck Sharp & Dohme Corp., priority 2012, dated 2017).

The structures appear in SMILES notation.

The target of this experiment is T1, recombinant human GST-Syk (Homo sapiens, UniProt P43405).
T1 construct: purchased Carna Biosciences 08-176
Nature of the experiment: Homogeneous Time-Resolved Fluorescence (HTRF) assay for the recombinant human Syk enzyme. It counts as biochemical. The note with it: recombinant human GST-Syk 5 pM, ATP 25 μM, 10-dose titration 10 μM to 0.508 nM; read-out: rhSYK Activity IC50. Summed up:
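Detection used time-resolved fluorescence 30 min after adding a quench mix (40 mM EDTA, 15 mM Tris pH 7.5, 0.01% Tween 20) containing 2 nM Europium anti-pTyr antibody and 70 nM streptavidin-APC. This followed 45 min of room-temperature peptide phosphorylation by recombinant GST-tagged human Syk.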
On to `Cc1cc(Nc2cc(C(F)(F)F)ccn2)nc(-c2cn(CC(O)C(O)c3ccccc3)nn2)c1` (stereo not drawn) [Example 10.1, 3-(4-(4-Methyl-6-((4-(trifluoromethyl)pyridin-2-yl)amino)pyridin-2-yl)-1H-1,2,3-triazol-1-yl)-1-phenylpropane-1,2-diol], for which the 50% inhibitory concentration (IC50) turned out to be 8.8 nM.
As for `Cc1cc(Nc2cc(C(F)(F)F)ccn2)nc(-c2cn(C3CN(C(=O)C(C)O)CC3O)nn2)c1` (single isomer, unassigned) [Example 13.4, 1-[2-hydroxypropanoyl]-4-[4-(4-methyl-6-{[4-(trifluoromethyl)pyridin-2-yl]amino}pyridin-2-yl)-1H-1,2,3-triazol-1-yl]pyrrolidin-3-ol], the figure is 15 nM; as for `Cc1ccnc(Nc2cc(C)cc(-c3cn(CCO)nn3)n2)c1` [Example 5.18, 2-(4-{4-methyl-6-[(4-methylpyridin-2-yl)amino]pyridin-2-yl}-1H-1,2,3-triazol-1-yl)ethanol], 154 nM; as for `Cc1cc(Nc2cc(C(F)(F)F)ccn2)nc(-c2cn(CC(C)(C)O)nn2)c1` [Example 5.97, 2-methyl-1-[4-(4-methyl-6-{[4-(trifluoromethyl)pyridin-2-yl]amino}pyridin-2-yl)-1H-1,2,3-triazol-1-yl]propan-2-ol], 15 nM.
As for `Cc1cc(Nc2cc(C(F)F)ccn2)nc(-c2cn(C(C)C(C)(O)CO)nn2)c1` (single isomer, unassigned) [Example 30.6, 3-[4-(6-{[4-(difluoromethyl)pyridin-2-yl]amino}-4-methylpyridin-2-yl)-1H-1,2,3-triazol-1-yl]-2-methylbutane-1,2-diol], the figure is 6.5 nM.
As for `Cc1cc(Nc2nccc(C(F)F)n2)cc(-c2cn(CC(C)(O)C(C)(C)O)nn2)c1` (stereo not drawn) [Example 21.18, 1-[4-(3-{[4-(difluoromethyl)pyrimidin-2-yl]amino}-5-methylphenyl)-1H-1,2,3-triazol-1-yl]-2,3-dimethylbutane-2,3-diol], the figure is 38.5 nM; as for `COC(=O)C1CCC(O)(Cn2cc(-c3cc(C)cc(Nc4nccc(C(F)(F)F)n4)c3)nn2)CC1(C)C` (stereo not drawn) [Example 4.11, methyl 4-hydroxy-2,2-dimethyl-4-{[4-(3-methyl-5-{[4-(trifluoromethyl)pyrimidin-2-yl]amino}phenyl)-1H-1,2,3-triazol-1-yl]methyl}cyclohexanecarboxylate], 145 nM; as for `Cc1cc(Nc2cc(C(F)(F)F)ccn2)nc(-c2cn(C3CCCCC(O)C3O)nn2)c1` (single isomer, unassigned) [Example 10.6, 3-[4-(4-methyl-6-{[4-(trifluoromethyl)pyridin-2-yl]amino}pyridin-2-yl)-1H-1,2,3-triazol-1-yl]cycloheptane-1,2-diol], 4.7 nM.
`Cc1cc(Nc2cc(C(F)(F)F)ccn2)nc(-c2nncn2C)c1` [Example 16.3, 4-methyl-6-(4-methyl-4H-1,2,4-triazol-3-yl)-N-[4-(trifluoromethyl)pyridin-2-yl]pyridin-2-amine]: the IC50 came out at 389 nM.
In the case of `Cc1cc(Nc2cc(C)c(F)cn2)nc(-c2cn(CC(C)(O)C(C)(C)O)nn2)c1` (stereo not drawn) [Example 21.29, 1-(4-{6-[(5-fluoro-4-methylpyridin-2-yl)amino]-4-methylpyridin-2-yl}-1H-1,2,3-triazol-1-yl)-2,3-dimethylbutane-2,3-diol], the IC50 amounted to 85.6 nM.
Regarding `Cc1cc(Nc2cc(C(F)F)ccn2)nc(-c2cn(CC3(C)CNC(=O)O3)nn2)c1` (single isomer, unassigned) [Example 7.8, 5-((4-(6-((4-(difluoromethyl)pyridin-2-yl)amino)-4-methylpyridin-2-yl) 1H-1,2,3-triazol-1-yl)methyl)-5-methyloxazolidin-2-one], the 50% inhibitory concentration (IC50) is 1.9 nM.
On to `Cc1cc(Nc2cc(C(F)(F)F)ccn2)nc(-c2cn(CCS(C)(=O)=O)nn2)c1` [Example 5.96, 4-methyl-6-{1-[2-(methylsulfonyl)ethyl]-1H-1,2,3-triazol-4-yl}-N-[4-(trifluoromethyl)pyridin-2-yl]pyridin-2-amine], for which the concentration for half-maximal inhibition (IC50) was found to be 47.1 nM.

Broadly, the IC50 is the midpoint of a concentration-inhibition curve.
